Reference: BindingDB's records for doi:10.1021/jm00067a003 (Upjohn Laboratories, 1993)

Biological target: 5-hydroxytryptamine receptor 1A (Bos taurus)
Assay: Binding affinity at 5-hydroxytryptamine 1A receptor in bovine hippocampal preparation using [3H]8-OH-DPAT

Q: Which Ki does the source give for `CCCN(CC1CC1)[C@H]1CCc2ccc3[nH]c(C(N)=O)cc3c2C1` here?
A: 5.3 nM
